From patent publication US20250352482A1, “AMORPHOUS DOSAGE FORM CONTAINING EBSELEN” (SOUND PHARMACEUTICALS INC., priority 2022, published 2025)

Conditions: minipig, in vivo
Procedure: Method: The purpose of this study was to determine the pharmacokinetics of ebselen and its metabolites in male and female bama mini-pigs following twice daily (BID) oral administration of two test formulations, control ebselen capsules (Formulation 1) and ebselen-ASD/HME capsules (Formulation 2) at 200 mg/animal for 2.5 days. Three male and three female naïve Bama mini-pigs were assigned to this study. In phase 1, animals received five oral doses (BID on day 1, BID on day 2 and QD on day 3) of Formulation 1: each dose comprised control ebselen capsules (1 (Ebselen capsule, 200 mg+3 placebo capsules). After one week wash out period, the same animals received five oral doses (BID on day 1, BID on day 2 and QD on day 3) of Formulation 2: each dose comprised four Ebselen ASD/HME capsules (Formulation 2), 50 mg each. In each phase, there were 12 hour intervals between dosing. Blood samples were collected at 0.5, 1, 2, 3, 4, 6, 8 and 12 hours post the first and fifth dosing. Concentrations of ebselen, and ebselen glucuronide metabolite in plasma samples were determined by LC-MS/MS.

For `O=c1c2ccccc2[se]n1-c1ccccc1` [ebselen, 2-Phenyl-1,2-benzoselenazol-3 (2H)-one], the “accumulation on systemic exposure to ebselen” value was “No obvious accumulation”.
